How the values were obtained:
[1] = test system: tubulin; experiment: Colchicine binding assay (inhibition of [3H]colchicine binding to tubulin); details: 1.0 μM tubulin, 5.0 μM [3H]colchicine
Method: Colchicine Binding Assay.
Inhibition of [^3H]colchicine binding to tubulin was measured in 0.1 mL reaction mixtures, each containing 1.0 μM tubulin, 5.0 μM [^3H]colchicine (Perkin-Elmer), 5% (v/v) dimethyl sulfoxide, […], and components that stabilize the colchicine binding activity of tubulin (1.0 M monosodium glutamate [adjusted to pH 6.6 with HCl in a 2.0 M stock solution], 0.5 mg/mL bovine serum albumin, 0.1 M glucose-1-phosphate, 1.0 mM MgCl2, and 1.0 mM GTP). […] Reactions were stopped with 2.0 mL of ice-cold water, with the reaction mixtures being placed on ice. Each diluted sample was poured onto a stack of two DEAE-cellulose filters (GE Biomedical), followed by 3 successive 2 mL aliquots of ice-cold water. A reduced vacuum was used to remove excess water from the filters, which were washed three times with 2 mL water and placed into vials containing 5 mL of Biosafe II scintillation cocktail. Samples were counted 18 h later in a Beckman scintillation counter. Samples with inhibitors were compared to samples with no inhibitor, and percent inhibition was determined, correcting all values for the amount of radiolabel bound to the filters in the absence of tubulin.

[2] = test system: DU-145 (prostate) cancer cell line; experiment: Sulforhodamine B (SRB) growth inhibition assay, DU-145; type: cell-based, human; details: 48 h treatment
From the text: (§1) Cell Lines and Sulforhodamine B (SRB) Assay.
(§2) The sulforhodamine B (SRB) assay was used to assess growth inhibition of human cancer cells, as previously described. DU-145, SK-OV-3, and NCI-H460 cancer cell lines (obtained from ATCC) were maintained in T75 flasks (Corning) using high glucose DMEM supplemented with 10% fetal bovine serum (Gibco)/1% gentamicin sulfate for a maximum of 15 passages. For these experiments, cells were trypsinized, counted, and plated at 7000-8000 cells/well into 96-well plates (Corning) and incubated for 24 h at 37° C. in a humidified incubator in a 5% CO2 atmosphere. Compounds to be tested were dissolved in DMSO to generate a 10 mg/mL stock solution, and serial dilutions added in media to the plates. Doxorubicin (Sigma-Aldrich) and paclitaxel (Tokyo Chemical) were used as positive controls. After a 48 h treatment, the cells were fixed with trichloroacetic acid (10% final concentration), washed, dried, stained with SRB dye, washed to remove excess dye, and dried. SRB dye was solubilized, and absorbances were measured at wavelength 540 nm and normalized to values at wavelength 630 nm using an automated Biotek plate reader.

[3] = test system: NCI-H460 (lung) cancer cell line; experiment: Sulforhodamine B (SRB) growth inhibition assay, NCI-H460; type: cell-based, human; details: 48 h treatment
From the text: as §1, §2

[4] = test system: SK-OV-3 (ovarian) cancer cell line; experiment: Sulforhodamine B (SRB) growth inhibition assay, SK-OV-3; type: cell-based, human; details: 48 h treatment
From the text: as §1, §2

[5] = target: T1, purified bovine brain tubulin (Bos taurus, UniProt P81947+Q6B856); experiment: Inhibition of tubulin polymerization (turbidimetric, cell-free); type: biochemical; details: for IC50: 10 μM tubulin, extent of polymerization after 20 min at 30° C., read-out: Inhibition of tubulin polymerization IC50 (μM) ± SD; for inhibition of tubulin polymerization (in words): cell-free assay
T1 construct: purified bovine brain tubulin; from tissue; host or cells: bovine brain
T1 sequence (Q6B856 whole entry): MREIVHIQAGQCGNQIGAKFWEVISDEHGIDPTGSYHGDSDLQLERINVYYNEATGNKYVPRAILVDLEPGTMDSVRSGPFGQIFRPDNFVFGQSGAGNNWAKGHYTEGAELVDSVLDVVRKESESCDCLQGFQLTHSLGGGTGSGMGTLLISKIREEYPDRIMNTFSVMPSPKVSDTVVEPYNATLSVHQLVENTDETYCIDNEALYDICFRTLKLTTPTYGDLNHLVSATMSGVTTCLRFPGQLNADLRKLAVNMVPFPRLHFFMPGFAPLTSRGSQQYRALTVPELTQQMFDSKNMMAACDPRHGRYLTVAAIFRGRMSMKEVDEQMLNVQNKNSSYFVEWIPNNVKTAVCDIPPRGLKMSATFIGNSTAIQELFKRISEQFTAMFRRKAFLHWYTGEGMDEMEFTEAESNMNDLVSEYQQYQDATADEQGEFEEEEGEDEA
T1 sequence (P81947 whole entry): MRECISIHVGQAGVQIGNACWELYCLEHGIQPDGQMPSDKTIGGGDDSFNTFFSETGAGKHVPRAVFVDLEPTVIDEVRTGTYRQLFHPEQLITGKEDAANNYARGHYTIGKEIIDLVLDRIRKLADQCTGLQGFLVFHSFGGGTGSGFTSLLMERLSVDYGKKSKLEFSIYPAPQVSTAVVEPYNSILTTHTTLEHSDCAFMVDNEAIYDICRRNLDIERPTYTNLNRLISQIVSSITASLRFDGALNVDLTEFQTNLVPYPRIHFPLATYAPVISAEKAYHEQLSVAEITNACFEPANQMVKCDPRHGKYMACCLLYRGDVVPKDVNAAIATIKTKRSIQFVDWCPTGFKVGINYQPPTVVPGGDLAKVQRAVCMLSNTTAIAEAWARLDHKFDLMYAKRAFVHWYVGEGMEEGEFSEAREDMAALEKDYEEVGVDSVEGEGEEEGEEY
Method: Inhibition of Tubulin Polymerization.
Tubulin polymerization was evaluated in 0.25 mL reaction mixtures (final volume) containing 1 mg/mL (10 μM) purified bovine brain tubulin, 0.8 M monosodium glutamate (pH 6.6), 4% (v/v) dimethyl sulfoxide, 0.4 mM GTP, and different compound concentrations. All components except GTP were preincubated for 15 min at 30° C. in 0.24 mL. The assay mixtures were cooled to 0° C., and 10 μL of 0.01 M GTP was added to each sample. Reaction mixtures were transferred to cuvettes held at 0° C. in Beckman DU-7400 and DU-7500 spectrophotometers equipped with electronic temperature controllers. The temperature was increased to 30° C., over about 30 s, and polymerization was followed turbidimetrically at 350 nm for 20 min.

Structure (SMILES)	% Inhibition of colchicine binding ± SD ([1]; compound at 1 μM)	GI50 [2] [µM]	GI50 [3] [µM]	GI50 [4] [µM]	% Inhibition of colchicine binding ± SD ([1]; compound at 5 μM)	GI50 ([2]; Homo sapiens, DU-145) [µM]	GI50 ([3]; Homo sapiens, NCI-H460) [µM]	GI50 ([4]; Homo sapiens, SK-OV-3) [µM]	IC50 [5] [µM]	inhibition of tubulin polymerization (in words) [5]
COc1ccc(/C=C\c2cc(OC)c(OC)c(OC)c2)cc1O [CA4, combretastatin A-4, reference compound]	84 ± 3%	0.00327	0.00223	0.00455	–	–	–	–	–	–
COc1ccc2c(c1C)CCCC=C2c1cc(OC)c(OC)c(OC)c1 [Compound 9, 1-methy-2-methoxy-5-(3′, 4′, 5′-trimethoxyphenyl)-benzosuber-5-ene]	–	–	–	–	65 ± 0.6 (5 μM) %	0.644	0.422	0.33	1.6 ± 0.2	–
CCCCc1c(OC)ccc2c1CCCC=C2c1cc(OC)c(OC)c(OC)c1 [Compound 20, 4-Butyl-3-methoxy-9-(30,40,50-trimethoxyphenyl)-6,7-dihydro-5H-benzo[7]annulene]	–	–	–	–	–	12.2	16.1	11.5	> 20	–
COc1ccc2c(c1O)CCCCC2(O)c1cc(OC)c(OC)c(OC)c1 (stereo not shown) [Compound 23, 2-Methoxy-5-(3,4,5-trimethoxyphenyl)-6,7,8,9-tetrahydro-5H-benzo[7]annulene-1,5-diol]	–	–	–	–	–	0.033	0.173	0.394	> 20	reduced inhibition of tubulin polymerization
COc1ccc2c(c1O)CCCC(=O)C2(O)c1cc(OC)c(OC)c(OC)c1 (stereo not shown) [Compound 24, 1,5-Dihydroxy-2-methoxy-5-(3,4,5-trimethoxyphenyl)-5,7,8,9-tetrahydro-6H-benzo[7]annulen-6-one]	–	–	–	–	72 ± 2 (5 μM) %	0.141	0.0476	0.0314	1.2 ± 0.1	–
COCCOCCOc1c(OC)ccc2c1CCCC=C2c1cc(OC)c(OC)c(OC)c1 [Compound 28, 3-Methoxy-4-(2-(2-methoxyethoxy)ethoxy)-9-(3,4,5-trimethoxyphenyl)-6,7-dihydro-5H-benzo[7]annulene]	–	–	–	–	–	5.66	1.9	6.52	> 20	loss of inhibitory activity
COc1cc(C2=CCCCc3c2ccc(OC)c3OCCO)cc(OC)c1OC [Compound 31, 2-((3-Methoxy-9-(3,4,5-trimethoxyphenyl)-6,7-dihydro-5H-benzo[7]annulen-4-yl)oxy)ethan-1-ol]	–	–	–	–	–	3.76	0.855	3.22	> 20	loss of inhibitory activity
COc1ccc2c(c1O)CCCC(Br)=C2c1cc(OC)c(OC)c(OC)c1 [Compound 33, 8-Bromo-3-methoxy-9-(3,4,5-trimethoxyphenyl)-6,7-dihydro-5H-benzo[7]annulen-4-ol]	–	–	–	–	88 ± 1 (5 μM) %	0.0362	0.0353	0.0221	0.39 ± 0.06	–
COc1ccc2c(c1C)CCCC(Br)=C2c1cc(OC)c(OC)c(OC)c1 [Compound 34, 8-Bromo-3-methoxy-4-methyl-9-(3,4,5-trimethoxyphenyl)-6,7-dihydro-5H-benzo[7]annulene]	35 ± 5 (1 μM) %	–	–	–	–	0.423	0.449	0.312	4.9 ± 0.1	–
COc1ccc2c(c1O)CCCC(O)C2(O)c1cc(OC)c(OC)c(OC)c1 (stereo not shown) [Compound 35, 2-Methoxy-5-(3,4,5-trimethoxyphenyl)-6,7,8,9-tetrahydro-5H-benzo[7]annulene-1,5,6-triol]	–	–	–	–	0 (5 μM) %	4.04	3.86	3.03	> 20	reduced inhibition of tubulin polymerization
COc1ccc2c(c1C#N)CCCC=C2c1cc(OC)c(OC)c(OC)c1 [Compound 38, 3-Methoxy-9-(3,4,5-trimethoxyphenyl)-6,7-dihydro-5H-benzo[7]annulene-4-carbonitrile]	–	–	–	0.0648	62 ± 0.7 (5 μM) %	0.86	0.434	–	1.1 ± 0.1	–
COc1ccc2c(c1C#N)CCC=C2c1cc(OC)c(OC)c(OC)c1 [Compound 39, 2-Methoxy-5-(3,4,5-trimethoxyphenyl)-7,8-dihydronaphthalene-1-carbonitrile]	–	–	–	0.0384	73 ± 0.6 (5 μM) %	–	0.0605	–	0.37 ± 0.08	–
COc1ccc2c(c1C=O)CCCC=C2c1cc(OC)c(OC)c(OC)c1 [Compound 40, 3-Methoxy-9-(3,4,5-trimethoxyphenyl)-6,7-dihydro-5H-benzo[7]annulene-4-carbaldehyde]	–	–	–	–	61 ± 3 (5 μM) %	0.0402	0.0847	0.0572	3.2 ± 0.08	–
CCOC(=O)c1c(OC)ccc2c1CCCC=C2c1cc(OC)c(OC)c(OC)c1 [Compound 47, Ethyl 3-methoxy-9-(3,4,5-trimethoxyphenyl)-6,7-dihydro-5H-benzo[7]annulene-4-carboxylate]	–	–	–	–	47 ± 1 (5 μM) %	0.631	0.353	0.299	1 ± 0.07	–
COc1ccc2c(c1CO)CCCC=C2c1cc(OC)c(OC)c(OC)c1 [Compound 48, (3-Methoxy-9-(3,4,5-trimethoxyphenyl)-6,7-dihydro-5H-benzo[7]annulen-4-yl)methanol]	–	–	–	–	76 ± 2 (5 μM) %	–	0.0628	0.0403	0.63 ± 0.03	–
COc1cc(C2=CC(O)CCc3c2ccc(OC)c3OC)cc(OC)c1OC (stereo not shown) [Compound 57, 3,4-Dimethoxy-9-(3,4,5-trimethoxyphenyl)-6,7-dihydro-5H-benzo[7]annulen-7-ol]	–	–	–	–	28 ± 4 (5 μM) %	0.439	0.432	0.263	3.8 ± 0.5	reduced inhibition of tubulin polymerization
COc1ccc2c(c1O)CCC(NC(C)=O)C=C2c1cc(OC)c(OC)c(OC)c1 (stereo not shown) [Compound 69]	–	–	–	–	0.4 ± 0.6 (5 μM) %	1.2	0.334	–	–	–
COc1cc(C2(O)C=CCCc3c2ccc(OC)c3OC)cc(OC)c1OC (stereo not shown) [Compound 76, 1,2-Dimethoxy-5-(3,4,5-trimethoxyphenyl)-8,9-dihydro-5H-benzo[7]annulen-5-ol]	–	–	–	–	0 (5 μM) %	26	70.5	27.2	> 20	lack of tubulin activity
COc1ccc2c(c1OC)CCCC1=C2c2cc(OC)c(OC)c(OC)c2C1=O [Compound 93, 3,4,9,10,11-Pentamethoxy-6,7-dihydrodibenzo[a,h]azulen-8(5H)-one]	–	–	–	–	–	3.26	0.65	3.35	> 20	–
COc1cccc2c1C(=O)c1c(O)c3c(c(O)c1C2=O)C[C@@](O)(C(=O)CO)C[C@@H]3O[C@H]1C[C@H](N)[C@H](O)[C@H](C)O1 [Doxorubicin, reference compound]	–	–	–	–	–	0.134	0.123	0.0789	–	–
CC(=O)O[C@H]1C(=O)[C@@]2(C)[C@H]([C@H](OC(=O)c3ccccc3)[C@]3(O)C[C@H](OC(=O)[C@H](O)[C@@H](NC(=O)c4ccccc4)c4ccccc4)C(C)=C1C3(C)C)[C@]1(OC(C)=O)CO[C@@H]1C[C@@H]2O [Paclitaxel, paclitaxel, reference compound]	–	–	–	–	–	0.00147	0.00176	0.00134	–	–
